Assay: xn = mol fraction of the nth substance listed
Conditions: Liquid

CCCCCCCCCC=CC=CC=CC=CC=CC=CC(=O)OCC [docosahexaenoic acid, ethyl ester] + O=C=O
Conditions	mass density [kg/m3]
313 K, x2 = 0.5325	912.2
313 K, x2 = 0.6836	915.9
313 K, x2 = 0.7773	919.1
313 K, x2 = 0.849	920.8
313 K, x2 = 0.8795	921.3
313 K, x2 = 0.8972	922.1
313 K, x2 = 0.9121	923
313 K, x2 = 0.9222	923.7
313 K, x2 = 0.9266	923.8
313 K, x2 = 0.9335	924
313 K, x2 = 0.9366	923.9
313 K, x2 = 0.9392	924.1
313 K, x2 = 0.9443	921.9
333 K, x2 = 0.5583	894.9
333 K, x2 = 0.6793	896.5
333 K, x2 = 0.7551	898.4
333 K, x2 = 0.7811	899.5
333 K, x2 = 0.8154	900
333 K, x2 = 0.8278	900.5
333 K, x2 = 0.8411	900.7
333 K, x2 = 0.8612	900.8
333 K, x2 = 0.8784	901
333 K, x2 = 0.8918	901.4
333 K, x2 = 0.9022	901.3
333 K, x2 = 0.9114	900.5
333 K, x2 = 0.9221	899
333 K, x2 = 0.9419	887.6

CCCCCCCCCC=CC=CC=CC=CC=CC(=O)OCC [eicosapentaenoic acid, ethyl ester] + O=C=O
Conditions	mass density [kg/m3]
313 K, x2 = 0.5962	907.6
313 K, x2 = 0.6865	911.9
313 K, x2 = 0.7582	915.2
313 K, x2 = 0.8265	916.8
313 K, x2 = 0.8496	916.3
313 K, x2 = 0.8708	916
313 K, x2 = 0.8826	916.1
313 K, x2 = 0.8921	916
313 K, x2 = 0.9008	915.5
313 K, x2 = 0.9091	915.2
313 K, x2 = 0.9184	913.7
313 K, x2 = 0.9264	912.3
313 K, x2 = 0.9402	906.6
333 K, x2 = 0.2842	886.2
333 K, x2 = 0.5005	888.6
333 K, x2 = 0.5996	890.9
333 K, x2 = 0.6826	892.9
333 K, x2 = 0.7423	894.3
333 K, x2 = 0.7876	895.3
333 K, x2 = 0.8186	895.6
333 K, x2 = 0.8338	895.5
333 K, x2 = 0.8541	895.1
333 K, x2 = 0.8766	894.8
333 K, x2 = 0.8927	894.1
333 K, x2 = 0.9043	892.8
333 K, x2 = 0.916	890.3
333 K, x2 = 0.9324	879.8

CCCCC/C=C\C/C=C\CCCCCCCC(=O)OC [methyl (Z,Z)-9,12-octadecadienate] + O=C=O
Conditions	mass density [kg/m3]
313 K, x2 = 0.5217	879.7
313 K, x2 = 0.6288	881.5
313 K, x2 = 0.7185	884.5
313 K, x2 = 0.758	888.1
313 K, x2 = 0.8057	890.6
313 K, x2 = 0.8337	892.9
313 K, x2 = 0.8624	895.4
313 K, x2 = 0.8862	896.8
313 K, x2 = 0.8984	895.2
313 K, x2 = 0.9209	892.9
313 K, x2 = 0.9289	890.5
313 K, x2 = 0.9388	885.7
333 K, x2 = 0.6128	868.3
333 K, x2 = 0.7016	870.8
333 K, x2 = 0.791	872.8
333 K, x2 = 0.8255	874.1
333 K, x2 = 0.852	875
333 K, x2 = 0.8742	874.1
333 K, x2 = 0.8981	873.4
333 K, x2 = 0.9048	872.7
333 K, x2 = 0.9102	871.7
333 K, x2 = 0.9156	870.5
333 K, x2 = 0.9193	870
333 K, x2 = 0.9264	864.7
333 K, x2 = 0.934	860.3
333 K, x2 = 0.9509	838.1

CCCCCCCC/C=C\CCCCCCCC(=O)OC [methyl cis-9-octadecenoate] + O=C=O
Conditions	mass density [kg/m3]
313 K, x2 = 0.4876	868.6
313 K, x2 = 0.5963	874.2
313 K, x2 = 0.7077	878.5
313 K, x2 = 0.7931	884.3
313 K, x2 = 0.833	885.5
313 K, x2 = 0.8595	887.5
313 K, x2 = 0.8736	887.5
313 K, x2 = 0.8891	886.9
313 K, x2 = 0.9111	886.4
313 K, x2 = 0.9231	885.1
313 K, x2 = 0.9312	882.7
313 K, x2 = 0.9387	881.2
333 K, x2 = 0.6086	857.1
333 K, x2 = 0.6969	859.9
333 K, x2 = 0.7916	862.3
333 K, x2 = 0.8255	864.4
333 K, x2 = 0.8509	865.8
333 K, x2 = 0.8813	867.4
333 K, x2 = 0.8901	864.5
333 K, x2 = 0.9072	864.9
333 K, x2 = 0.9167	863.2
333 K, x2 = 0.9213	863.1
333 K, x2 = 0.9282	859.2
333 K, x2 = 0.9341	858.9
333 K, x2 = 0.943	851.6
